The values below come from PMC10366214, “The anti-Alzheimer potential of novel spiroindolin-1,2-diazepine derivatives as targeted cholinesterase inhibitors with modified substituents” (Scientific Reports, 2023).

SMILES strings stand for the structures. Read-outs that look alike come from different tables or passages of the source.

Test [1] deals with T1, AChE (Homo sapiens, UniProt P22303). Nature of the test: biochemical. The conditions noted are these: for inhibition at 50 µM: read-out: AChE % inhibition at 50 µM. The procedure:
(§1) Cholinesterase inhibitory activities of all analogs were evaluated spectrometrically using the modified Ellman method as previously reported[40],[41]. […] The absorbance of each well was measured at 415 nm using a microplate reader. IC50 values and inhibition values were calculated with the software GraphPad Prism as the mean of three independent experiments and are expressed as mean ± SEM.

Test [2] deals with T2, BChE (Homo sapiens, UniProt P06276). Nature of the test: BChE inhibition, modified Ellman method. In kind it is biochemical. The conditions noted are these: for inhibition at 50 µM: read-out: BChE % inhibition at 50 µM. The procedure: as §1
In general terms: DTNB colorimetry detects thiols as they appear.

For test [3], the target named is T1, AChE. The conditions noted are these: cited from earlier work.
Test [4] addresses T2, BChE. The conditions noted are these: cited from earlier work.
Where [5] appears, read: 50 µM, mean ± S.E of three to five independent experiments.
Where [6] appears, read: mean ± S.E of three to five independent experiments, read-out: AChE IC50.
The mark [7] stands for this setting: mean ± S.E of three to five independent experiments, read-out: BChE IC50.

T2 sequence (P06276 29-602): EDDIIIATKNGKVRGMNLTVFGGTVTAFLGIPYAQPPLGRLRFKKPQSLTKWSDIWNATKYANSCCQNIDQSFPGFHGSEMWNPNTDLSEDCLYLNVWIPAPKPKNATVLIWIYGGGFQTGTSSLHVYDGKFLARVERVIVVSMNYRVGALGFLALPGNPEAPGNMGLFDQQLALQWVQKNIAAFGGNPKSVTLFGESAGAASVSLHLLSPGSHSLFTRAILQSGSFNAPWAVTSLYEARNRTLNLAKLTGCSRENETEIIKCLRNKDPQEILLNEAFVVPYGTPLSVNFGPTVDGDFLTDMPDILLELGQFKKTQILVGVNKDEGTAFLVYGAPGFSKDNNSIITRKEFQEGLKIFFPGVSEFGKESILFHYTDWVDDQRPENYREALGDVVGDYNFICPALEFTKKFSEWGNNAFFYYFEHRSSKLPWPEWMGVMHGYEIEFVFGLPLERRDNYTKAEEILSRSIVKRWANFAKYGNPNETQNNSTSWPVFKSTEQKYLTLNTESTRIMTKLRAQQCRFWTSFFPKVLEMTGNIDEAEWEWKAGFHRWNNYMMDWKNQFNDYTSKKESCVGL
T1 sequence (P22303 32-614): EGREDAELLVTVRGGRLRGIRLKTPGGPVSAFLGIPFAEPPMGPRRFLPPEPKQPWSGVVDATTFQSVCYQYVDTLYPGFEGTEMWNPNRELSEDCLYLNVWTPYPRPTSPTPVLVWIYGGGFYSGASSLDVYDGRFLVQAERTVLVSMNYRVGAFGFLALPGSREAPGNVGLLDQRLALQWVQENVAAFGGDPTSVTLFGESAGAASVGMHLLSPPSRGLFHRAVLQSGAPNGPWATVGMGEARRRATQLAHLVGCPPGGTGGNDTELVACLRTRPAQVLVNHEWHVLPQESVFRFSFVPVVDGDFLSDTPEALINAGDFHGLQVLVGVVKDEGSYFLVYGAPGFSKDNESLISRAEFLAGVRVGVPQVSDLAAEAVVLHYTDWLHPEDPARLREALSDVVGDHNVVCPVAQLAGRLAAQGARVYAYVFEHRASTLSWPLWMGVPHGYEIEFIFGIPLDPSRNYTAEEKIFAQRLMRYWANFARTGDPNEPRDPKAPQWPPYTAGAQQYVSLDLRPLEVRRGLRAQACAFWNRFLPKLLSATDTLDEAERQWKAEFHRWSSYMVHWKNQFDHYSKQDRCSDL

For orientation: inhibition means the drop in the measured response relative to a control, in per cent. For `Cc1ccc(NC2=C([N+](=O)[O-])C3(C(=O)Nc4ccc(Cl)cc43)C(C#N)=C(N)NN2)cc1` (stereo not shown) [Compound 5a, 3-amino-5'-chloro-6-nitro-2'-oxo-7-(p-tolylamino)-1,2-dihydrospiro[[1,2]diazepine-5,3'-indoline]-4-carbonitrile], the values for the inhibition at 50 µM at AChE [1] (setting [5]) and on BChE [2] (setting [5]) were 5.37 ± 3.11% and 18.1 ± 2.88%, respectively.

Consider `COc1ccc(NC2=C([N+](=O)[O-])C3(C(=O)Nc4ccc(Cl)cc43)C(C#N)=C(N)NN2)cc1` (stereo not shown) [Compound 5b, 3-amino-5'-chloro-7-((4-methoxyphenyl)amino)-6-nitro-2'-oxo-1,2-dihydrospiro[[1,2]diazepine-5,3'-indoline]-4-carbonitrile], for which the inhibition at 50 µM on AChE [1] (setting [5]) turned out to be 42.8 ± 2.15%; at BChE [2] (setting [5]), 36.8 ± 2.1%.

Turning to `Cc1ccc(NC2=C([N+](=O)[O-])C3(C(=O)Nc4ccc(Cl)cc43)C(C#N)=C(N)NN2)cc1C` (stereo not shown) [Compound 5c, 3-amino-5'-chloro-7-((3,4-dimethylphenyl)amino)-6-nitro-2'-oxo-1,2-dihydrospiro[[1,2]diazepine-5,3'-indoline]-4-carbonitrile], on AChE [1] (setting [5]), the “AChE % inhibition at 50 µM” value was “Not active”. For the same compound, the inhibition at 50 µM on BChE [2] (setting [5]) was found to be 37 ± 3.78%.

For the compound `COc1ccc(OC)c(NC2=C([N+](=O)[O-])C3(C(=O)Nc4ccc(Cl)cc43)C(C#N)=C(N)NN2)c1` (stereo not shown) [Compound 5d, 3-amino-5'-chloro-7-((2,5-dimethoxyphenyl)amino)-6-nitro-2'-oxo-1,2-dihydrospiro[[1,2]diazepine-5,3'-indoline]-4-carbonitrile], the inhibition at 50 µM at AChE [1] (setting [5]) was determined as 27.8 ± 5.26%; on BChE [2] (setting [5]), 19.2 ± 4.07%.

For `N#CC1=C(N)NNC(Nc2ccc(Cl)cc2)=C([N+](=O)[O-])C12C(=O)Nc1ccc(Cl)cc12` (stereo not shown) [Compound 5e, 3-amino-5'-chloro-7-((4-chlorophenyl)amino)-6-nitro-2'-oxo-1,2-dihydrospiro[[1,2]diazepine-5,3'-indoline]-4-carbonitrile], the inhibition at 50 µM on AChE [1] (setting [5]) is 13.4 ± 3.34%. In addition, the “BChE % inhibition at 50 µM” value on BChE [2] (setting [5]) is listed as “Not active”.

What is called IC50 is the concentration needed to halve the response being measured. Consider `Cc1ccccc1NC1=C([N+](=O)[O-])C2(C(=O)Nc3ccc([N+](=O)[O-])cc32)C(C#N)=C(N)NN1` (stereo not shown) [Compound 5f, 3-amino-5',6-dinitro-2'-oxo-7-(o-tolylamino)-1,2-dihydrospiro[[1,2]diazepine-5,3'-indoline]-4-carbonitrile], for which, at AChE [1], the 50% inhibitory concentration (IC50) was 22.4 ± 2.11 µM and the inhibition at 50 µM worked out at 59.6 ± 6.75%. Also, the inhibition at 50 µM on BChE [2] stood at 23.3 ± 3.97%.

With `Cc1ccc(NC2=C([N+](=O)[O-])C3(C(=O)Nc4ccc([N+](=O)[O-])cc43)C(C#N)=C(N)NN2)cc1` (stereo not shown) [Compound 5g, 3-amino-5',6-dinitro-2'-oxo-7-(p-tolylamino)-1,2-dihydrospiro[[1,2]diazepine-5,3'-indoline]-4-carbonitrile], on AChE [1], it took 5.88 ± 0.84 µM to reach half-maximal inhibition (IC50) and the inhibition at 50 µM worked out at 66.3 ± 6.57%. The inhibition at 50 µM at BChE [2] was 24.4 ± 2.96%.

With `Cc1ccc(NC2=C([N+](=O)[O-])C3(C(=O)Nc4ccc([N+](=O)[O-])cc43)C(C#N)=C(N)NN2)cc1C` (stereo not shown) [Compound 5h, 3-amino-7-((3,4-dimethylphenyl)amino)-5',6-dinitro-2'-oxo-1,2-dihydrospiro[[1,2]diazepine-5,3'-indoline]-4-carbonitrile], at AChE [1], the inhibition at 50 µM turned out to be 48.6 ± 2.7%. The “BChE % inhibition at 50 µM” value on BChE [2] (setting [5]) is on record as “Not active”.

As to `COc1ccc(NC2=C([N+](=O)[O-])C3(C(=O)Nc4ccc([N+](=O)[O-])cc43)C(C#N)=C(N)NN2)cc1` (stereo not shown) [Compound 5i, 3-amino-7-((4-methoxyphenyl)amino)-5',6-dinitro-2'-oxo-1,2-dihydrospiro[[1,2]diazepine-5,3'-indoline]-4-carbonitrile], the inhibition at 50 µM stood at 46.1 ± 3.38% on AChE [1] and 31.2 ± 3.65% on BChE [2].

For the compound `COc1ccc(OC)c(NC2=C([N+](=O)[O-])C3(C(=O)Nc4ccc([N+](=O)[O-])cc43)C(C#N)=C(N)NN2)c1` (stereo not shown) [Compound 5j, 3-amino-7-((2,5-dimethoxyphenyl)amino)-5',6-dinitro-2'-oxo-1,2-dihydrospiro[[1,2]diazepine-5,3'-indoline]-4-carbonitrile], at AChE [1], the IC50 was found to be 20.9 ± 2.96 µM and the inhibition at 50 µM was found to be 61.7 ± 3.77%. Also, at BChE [2], the midpoint of inhibition, the IC50, lay at 17.4 ± 3.29 µM and the inhibition at 50 µM amounted to 58.4 ± 3.55%.

Take `N#CC1=C(N)NNC(Nc2ccc(Cl)cc2)=C([N+](=O)[O-])C12C(=O)Nc1ccc([N+](=O)[O-])cc12` (stereo not shown) [Compound 5k, 3-amino-7-((4-chlorophenyl)amino)-5',6-dinitro-2'-oxo-1,2-dihydrospiro[[1,2]diazepine-5,3'-indoline]-4-carbonitrile]: the values for the inhibition at 50 µM on AChE [1] and at BChE [2] were 24.6 ± 1.7% and 17.9 ± 1.81%, respectively.

As for `Cc1ccccc1NC1=C([N+](=O)[O-])C2(C(=O)Nc3c(Cl)cc(Cl)cc32)C(C#N)=C(N)NN1` (stereo not shown) [Compound 5m, 3-amino-5',7'-dichloro-6-nitro-2'-oxo-7-(o-tolylamino)-1,2-dihydrospiro[[1,2]diazepine-5,3'-indoline]-4-carbonitrile], the results for the inhibition at 50 µM on AChE [1] (setting [5]) and at BChE [2] (setting [5]) were 24.8 ± 5.48% and 41.9 ± 6.47%, respectively.

For the compound `COc1ccc(NC2=C([N+](=O)[O-])C3(C(=O)Nc4c(Cl)cc(Cl)cc43)C(C#N)=C(N)NN2)cc1` (stereo not shown) [Compound 5n, 3-amino-5',7'-dichloro-7-((4-methoxyphenyl)amino)-6-nitro-2'-oxo-1,2-dihydrospiro[[1,2]diazepine-5,3'-indoline]-4-carbonitrile], the inhibition at 50 µM at AChE [1] (setting [5]) is 35.4 ± 7.54%; at BChE [2] (setting [5]) it was 46.5 ± 4.77%.

On to `Cc1ccc(NC2=C([N+](=O)[O-])C3(C(=O)Nc4c(Br)cc(Br)cc43)C(C#N)=C(N)NN2)cc1` (stereo not shown) [Compound 5o, 3-amino-5',7'-dibromo-6-nitro-2'-oxo-7-(p-tolylamino)-1,2-dihydrospiro[[1,2]diazepine-5,3'-indoline]-4-carbonitrile], for which the inhibition at 50 µM at AChE [1] (setting [5]) turned out to be 37.6 ± 4.74%; on BChE [2] (setting [5]), 14.1 ± 3.7%.

As for `COc1ccc(OC)c(NC2=C([N+](=O)[O-])C3(C(=O)Nc4c(Br)cc(Br)cc43)C(C#N)=C(N)NN2)c1` (stereo not shown) [Compound 5p, 3-amino-5',7'-dibromo-7-((2,5-dimethoxyphenyl)amino)-6-nitro-2'-oxo-1,2-dihydrospiro[[1,2]diazepine-5,3'-indoline]-4-carbonitrile], the inhibition at 50 µM turned out to be 73.4 ± 4.21% at AChE [1] (setting [5]) and 59.3 ± 3.15% at BChE [2] (setting [5]). The IC50 on AChE [1] (setting [6]) amounted to 11.3 ± 1.65 µM; on BChE [2] (setting [7]), 37.9 ± 4.85 µM.

As for `N#CC1=C(N)NNC(Nc2cccc(O)c2)=C([N+](=O)[O-])C12C(=O)Nc1c(Br)cc(Br)cc12` (stereo not shown) [Compound 5q, 3-amino-5',7'-dibromo-7-((3-hydroxyphenyl)amino)-6-nitro-2'-oxo-1,2-dihydrospiro[[1,2]diazepine-5,3'-indoline]-4-carbonitrile], the results for the inhibition at 50 µM on AChE [1] (setting [5]) and on BChE [2] (setting [5]) were 63.1 ± 4.43% and 37.1 ± 0.84%, respectively. Besides, the half-inhibitory concentration (IC50) on AChE [1] (setting [6]) came to 12 ± 2.33 µM.

Turning to `N#CC1=C(N)NNC(Nc2ccc(O)cc2)=C([N+](=O)[O-])C12C(=O)Nc1c(Br)cc(Br)cc12` (stereo not shown) [Compound 5r, 3-amino-5',7'-dibromo-7-((4-hydroxyphenyl)amino)-6-nitro-2'-oxo-1,2-dihydrospiro[[1,2]diazepine-5,3'-indoline]-4-carbonitrile], the values for the inhibition at 50 µM on AChE [1] (setting [5]) and at BChE [2] (setting [5]) were 46.7 ± 1.92% and 51.7 ± 1.29%, respectively. Further, on BChE [2] (setting [7]), the IC50 worked out at 45.7 ± 5.62 µM.

On to `COc1ccc(NC2=C([N+](=O)[O-])C3(C(=O)Nc4c(C(F)(F)F)cccc43)C(C#N)=C(N)NN2)cc1` (stereo not shown) [Compound 5s, 3-amino-7-((4-methoxyphenyl)amino)-6-nitro-2'-oxo-7'-(trifluoromethyl)-1,2-dihydrospiro[[1,2]diazepine-5,3'-indoline]-4-carbonitrile], for which the inhibition at 50 µM at AChE [1] (setting [5]) is 56 ± 4.39%; at BChE [2] (setting [5]), 13.4 ± 3.46%. Moreover, the half-inhibitory concentration (IC50) on AChE [1] (setting [6]) came out at 17.8 ± 2.79 µM.

For the compound `Cc1ccccc1NC1=C([N+](=O)[O-])C2(C(=O)Nc3c(C(F)(F)F)cccc32)C(C#N)=C(N)NN1` (stereo not shown) [Compound 5t, 3-amino-6-nitro-2'-oxo-7-(o-tolylamino)-7'-(trifluoromethyl)-1,2-dihydrospiro[[1,2]diazepine-5,3'-indoline]-4-carbonitrile], the results for the inhibition at 50 µM on AChE [1] (setting [5]) and on BChE [2] (setting [5]) were 24.7 ± 1.94% and 7.31 ± 5.07%, respectively.

As to `N#CC1=C(N)NNC(Nc2cccc(O)c2)=C([N+](=O)[O-])C12C(=O)Nc1c(C(F)(F)F)cccc12` (stereo not shown) [Compound 5u, 3-amino-7-((3-hydroxyphenyl)amino)-6-nitro-2'-oxo-7'-(trifluoromethyl)-1,2-dihydrospiro[[1,2]diazepine-5,3'-indoline]-4-carbonitrile], the figures for the inhibition at 50 µM on AChE [1] (setting [5]) and at BChE [2] (setting [5]) were 16.4 ± 0.53% and 10.4 ± 1.07%, respectively.

Turning to `N#CC1=C(N)NNC(Nc2ccc(O)cc2)=C([N+](=O)[O-])C12C(=O)Nc1c(C(F)(F)F)cccc12` (stereo not shown) [Compound 5v, 3-amino-7-((4-hydroxyphenyl)amino)-6-nitro-2'-oxo-7'-(trifluoromethyl)-1,2-dihydrospiro[[1,2]diazepine-5,3'-indoline]-4-carbonitrile], the inhibition at 50 µM worked out at 17.7 ± 1.82% on AChE [1] (setting [5]) and 13 ± 1.14% on BChE [2] (setting [5]).

Regarding `O=C1Nc2ccccc2/C1=C\c1cc[n+](Cc2ccccc2Cl)cc1` [compound B], the IC50 on AChE [3] was 0.00044 µM; on BChE [4] it was 1.37 µM. Moreover, on AChE [3] (versus donepezil as reference drug), the “fold more potent than donepezil (AChE)” value is 32 fold.

`O=C(CC1(O)C(=O)N(Cc2ccccc2)c2ccccc21)c1ccc(Br)cc1Br` (stereo not shown) [compound C]: the figures for the IC50 at AChE [3] and on BChE [4] were 0.028 ± 0.003 µM and 0.065 ± 0.008 µM, respectively.

Turning to `Cc1ccc(Cn2cc(COc3cccc(C4Nc5ccccc5NC5=C4C(=O)CC(C)(C)C5)c3)nn2)cc1` (stereo not shown) [compound E], the “AChE Inhibition % at 30 μM” value at AChE [3] (30 μM) is on record as 12.9%. The IC50 on BChE [4] is 0.2 ± 0.002 µM.
